Measured values published in publication PMC11876601 (Molecular Systems Biology, 2025).
“And” between values parts separate entries of the source, which are not always exact repeats. Equal values may be shown once. Read-outs that look alike come from different tables or passages of the source.

Tests used:
13 PDAC cell lines = experiment: Phenotypic drug combination viability screen (ATPlite, 72 h), cell line panel; assay type: cell-based, human; conditions: Homo sapiens
PANC-1 cells = experiment: Cell proliferation assay, GEM + ATR inhibitor (Incucyte confluence, 72 h); conditions: for EC50: Homo sapiens, experiment GEM (GEM alone, in the series of the ATRi named in column Drug); for Response: ATRi 0 nM (GEM), R1-R3;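 on EC50: in combination experiments GEM is titrated while ATRi is held at a fixed sub-EC50 dose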;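 on all read-outs here: PANC-1 confluence at 72 h taken as raw values, not normalized to starting confluence, with each experiment run in triplicate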
Procedure: (§1) Cells were seeded at 5000 cells/well into 96-well flat bottom plates (Eppendorf) and allowed to attach overnight. […] Cells were incubated for 72 h at 37 °C and 5% CO2. Cell confluence readouts at 72 h were either normalized to their initial confluence using the Incucyte software (AsPC-1) or used without prior normalization (all others). […] Each experiment was performed in triplicates, the data was plotted as mean ± standard deviation (s.d.).

AsPC-1 cells = experiment: Cell proliferation assay, chemodrug + ATR inhibitor (Incucyte confluence, 72 h); conditions: for Curve bottom / Curve top / Curve slope: AsPC1; for Curve bottom / Curve top: fitted curve, relative response; for Curve slope: fitted dose-response curve;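 on all read-outs here: underlying read-out for every value is AsPC-1 confluence after 72 h incubation at 37 °C and 5% CO2, divided by that well's starting confluence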
Procedure: as §1

[1] = PANC-1, experiment GEM (GEM alone), plateau of fitted curve, ratio drug/vehicle confluence
[2] = Experiment GEM alone in the Berzosertib series
[3] = Experiment GEM alone in the Ceralasertib series
[4] = Experiment GEM alone in the Elimusertib series
[5] = Experiment GEM alone in the Gartisertib series

Nc1ccn([C@@H]2O[C@H](CO)[C@@H](O)C2(F)F)c(=O)n1 [GEM, Gemcitabine]
EC50 (13 PDAC cell lines; read-out: EC50,GEM): < 10 nM
EC50 (13 PDAC cell lines; read-out: EC50): ≥ 1 nM
EC50 (PANC-1 cells; PANC-1, PANC-1, replicates R1-R3): 5.84e-08 M
EC50 (PANC-1 cells; PANC-1, read-out: pEC50, PANC-1 (converted), -log10 of EC50 [M]): 5.89e-08 M
Response (PANC-1 cells; PANC-1, GEM 1 nM): 55.73 and 93.02 and 87.94
Response (PANC-1 cells; PANC-1, GEM 3 nM): 54.62 and 89.30 and 88.72
Response (PANC-1 cells; PANC-1, GEM 10 nM): 65.10 and 93.01 and 80.93
Response (PANC-1 cells; PANC-1, GEM 30 nM): 43.73 and 76.60 and 68.58
Response (PANC-1 cells; PANC-1, GEM 300 nM): 45.56 and 60.97 and 63.22
Response (PANC-1 cells; PANC-1, GEM 1000 nM): 38.26 and 66.03 and 59.27
Response (PANC-1 cells; PANC-1, GEM 3000 nM): 35.94 and 56.55 and 61.30
Curve bottom (PANC-1 cells; [1]): 1.02 and 1.05 and 1.06 and 0.91 and 1.00 and 0.98
Curve top (PANC-1 cells; [1]): 0.74
Curve bottom (AsPC-1 cells; [2]): 1.01 and 1.02
Curve top (AsPC-1 cells; [2]): 0.52 and 0.50
Curve bottom (AsPC-1 cells; [3]): 0.98 and 0.99
Curve top (AsPC-1 cells; [3]): 0.56 and 0.44 and 0.46
Curve bottom (AsPC-1 cells; [4]): 1.00 and 0.96 and 1.04
Curve top (AsPC-1 cells; [4]): 0.42 and 0.43 and 0.44
Curve slope (AsPC-1 cells; [4]): 1.10 and 1.63 and 1.11
Curve bottom (AsPC-1 cells; [5]): 0.99 and 0.98 and 1.02
Curve top (AsPC-1 cells; [5]): 0.53 and 0.46 and 0.43
Curve slope (AsPC-1 cells; [5]): 0.94 and 1.48 and 1.05
Raw data (confluence at 72 h/confluence at 0 h) (AsPC-1 cells; Berzosertib experiment, replicate R3, titrated drug dose 1 nM): 3.42
Raw data (confluence at 72 h/confluence at 0 h) (AsPC-1 cells; Berzosertib experiment, replicate R3, titrated drug dose 3 nM): 3.51
Raw data (confluence at 72 h/confluence at 0 h) (AsPC-1 cells; Berzosertib experiment, replicate R3, titrated drug dose 10 nM): 3.46
Raw data (confluence at 72 h/confluence at 0 h) (AsPC-1 cells; Berzosertib experiment, replicate R3, titrated drug dose 30 nM): 3.01
Raw data (confluence at 72 h/confluence at 0 h) (AsPC-1 cells; Berzosertib experiment, replicate R3, titrated drug dose 100 nM): 2.04
Raw data (confluence at 72 h/confluence at 0 h) (AsPC-1 cells; Berzosertib experiment, replicate R1, titrated drug dose 1 nM): 3.13
Raw data (confluence at 72 h/confluence at 0 h) (AsPC-1 cells; Berzosertib experiment, replicate R1, titrated drug dose 3 nM): 3.29
Raw data (confluence at 72 h/confluence at 0 h) (AsPC-1 cells; Berzosertib experiment, replicate R1, titrated drug dose 10 nM): 2.93
Raw data (confluence at 72 h/confluence at 0 h) (AsPC-1 cells; Berzosertib experiment, replicate R1, titrated drug dose 30 nM): 2.52
Raw data (confluence at 72 h/confluence at 0 h) (AsPC-1 cells; Berzosertib experiment, replicate R1, titrated drug dose 100 nM): 2.11
Raw data (confluence at 72 h/confluence at 0 h) (AsPC-1 cells; Berzosertib experiment, replicate R1, titrated drug dose 300 nM): 1.92
Raw data (confluence at 72 h/confluence at 0 h) (AsPC-1 cells; Berzosertib experiment, replicate R2, titrated drug dose 1 nM): 3.67
Raw data (confluence at 72 h/confluence at 0 h) (AsPC-1 cells; Berzosertib experiment, replicate R2, titrated drug dose 3 nM): 3.44
Raw data (confluence at 72 h/confluence at 0 h) (AsPC-1 cells; Berzosertib experiment, replicate R2, titrated drug dose 10 nM): 3.56
Raw data (confluence at 72 h/confluence at 0 h) (AsPC-1 cells; Berzosertib experiment, replicate R2, titrated drug dose 30 nM): 3.03
Raw data (confluence at 72 h/confluence at 0 h) (AsPC-1 cells; Ceralasertib experiment, replicate R1, titrated drug dose 1 nM): 2.79
Raw data (confluence at 72 h/confluence at 0 h) (AsPC-1 cells; Ceralasertib experiment, replicate R1, titrated drug dose 3 nM): 3.19
Raw data (confluence at 72 h/confluence at 0 h) (AsPC-1 cells; Ceralasertib experiment, replicate R1, titrated drug dose 10 nM): 2.64
Raw data (confluence at 72 h/confluence at 0 h) (AsPC-1 cells; Ceralasertib experiment, replicate R1, titrated drug dose 30 nM): 2.39
Raw data (confluence at 72 h/confluence at 0 h) (AsPC-1 cells; Ceralasertib experiment, replicate R1, titrated drug dose 100 nM): 2.12
Raw data (confluence at 72 h/confluence at 0 h) (AsPC-1 cells; Ceralasertib experiment, replicate R2, titrated drug dose 1 nM): 3.88
Raw data (confluence at 72 h/confluence at 0 h) (AsPC-1 cells; Ceralasertib experiment, replicate R2, titrated drug dose 3 nM): 3.93
Raw data (confluence at 72 h/confluence at 0 h) (AsPC-1 cells; Ceralasertib experiment, replicate R2, titrated drug dose 10 nM): 3.66
Raw data (confluence at 72 h/confluence at 0 h) (AsPC-1 cells; Ceralasertib experiment, replicate R2, titrated drug dose 30 nM): 3.19
Raw data (confluence at 72 h/confluence at 0 h) (AsPC-1 cells; Ceralasertib experiment, replicate R2, titrated drug dose 100 nM): 2.36
Raw data (confluence at 72 h/confluence at 0 h) (AsPC-1 cells; Ceralasertib experiment, replicate R2, titrated drug dose 300 nM): 1.88
Raw data (confluence at 72 h/confluence at 0 h) (AsPC-1 cells; Ceralasertib experiment, replicate R3, titrated drug dose 1 nM): 3.42
Raw data (confluence at 72 h/confluence at 0 h) (AsPC-1 cells; Ceralasertib experiment, replicate R3, titrated drug dose 3 nM): 3.64
Raw data (confluence at 72 h/confluence at 0 h) (AsPC-1 cells; Experiment (ATRi) Elimusertib, replicate R1, drug dose (titrated) 1 nM): 3.45
Raw data (confluence at 72 h/confluence at 0 h) (AsPC-1 cells; Experiment (ATRi) Elimusertib, replicate R1, drug dose (titrated) 3 nM): 3.34
Raw data (confluence at 72 h/confluence at 0 h) (AsPC-1 cells; Experiment (ATRi) Elimusertib, replicate R1, drug dose (titrated) 10 nM): 3.17
Raw data (confluence at 72 h/confluence at 0 h) (AsPC-1 cells; Experiment (ATRi) Elimusertib, replicate R1, drug dose (titrated) 30 nM): 2.54
Raw data (confluence at 72 h/confluence at 0 h) (AsPC-1 cells; Experiment (ATRi) Elimusertib, replicate R1, drug dose (titrated) 100 nM): 1.97
